Results as given in patent publication US20240343733A1, “COMPOUNDS FOR TARGETING DEGRADATION OF IRAK4 PROTEINS” (BIOGEN MA INC., priority 2021, published 2024).

Biological target: T1, IRAK4 (Homo sapiens, UniProt Q9NWZ3)
T1 construct: 293Tcells expressing HiBiT-tagged IRAK4 were then added into 384-well plates
T1 sequence (Q9NWZ3 1-460): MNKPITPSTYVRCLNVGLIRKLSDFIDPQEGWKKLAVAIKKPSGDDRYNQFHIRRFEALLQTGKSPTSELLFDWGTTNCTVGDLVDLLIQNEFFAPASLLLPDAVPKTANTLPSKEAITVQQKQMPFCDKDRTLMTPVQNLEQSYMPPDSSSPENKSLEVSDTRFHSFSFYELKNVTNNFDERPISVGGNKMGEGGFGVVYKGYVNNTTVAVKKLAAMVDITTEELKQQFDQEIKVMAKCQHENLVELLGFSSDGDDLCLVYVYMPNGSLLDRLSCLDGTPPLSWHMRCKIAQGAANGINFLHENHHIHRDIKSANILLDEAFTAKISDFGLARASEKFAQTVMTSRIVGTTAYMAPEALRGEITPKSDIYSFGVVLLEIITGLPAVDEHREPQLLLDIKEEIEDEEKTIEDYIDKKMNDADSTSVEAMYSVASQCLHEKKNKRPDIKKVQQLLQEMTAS
Experiment: IRAK4 Degradation Assay, HiBiT Method
Format: cell-based
Details: 293T cells expressing HiBiT-tagged IRAK4, 6 hours
Outline: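 293T cells with HiBiT knocked in at the C-terminus of endogenous IRAK4, 10,000 per well, treated 6 h at 37 °C with an 11-point half-log series ([…]), in duplicate. Remaining IRAK4 read by Nano-Glo HiBiT lytic luminescence against DMSO-only and media-only controls.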

| DC50 [nM] | Structure (SMILES) |
| --- | --- |
| 10 to 100 | CC(C)Oc1cc2nc(C3CCN(C(=O)CN4CCC(c5ccc(NC6CCC(=O)NC6=O)cn5)CC4)CC3)cn2cc1C(=O)Nc1cccc(C(F)F)n1 (stereo not shown) [Example 84, N-[6-(difluoromethyl)-2-pyridyl]-2-[1-[2-[4-[5-[(2,6-dioxo-3-piperidyl)amino]-2-pyridyl]-1-piperidyl]acetyl]-4-piperidyl]-7-isopropoxy-imidazo[1,2-a]pyridine-6-carboxamide] |
| 10 to 100 | CC(C)Oc1cc2nc([C@H]3CC[C@H](CN4CCC(c5ccc(NC6CCC(=O)NC6=O)cc5)CC4)CC3)cn2cc1C(=O)Nc1cccc(C(F)F)n1 (stereo partly shown) [Example 16, N-[6-(difluoromethyl)-2-pyridyl]-2-[4-[[4-[4-[(2,6-dioxo-3-piperidyl)amino]phenyl]-1-piperidyl]methyl]cyclohexyl]-7-isopropoxy-imidazo[1,2-a]pyridine-6-carboxamide] |
| 100 to 500 | CC(C)Oc1cc2nc([C@H]3CC[C@H](CN(C)C4CCN(Cc5cccc(NC6CCC(=O)NC6=O)c5)CC4)CC3)cn2cc1C(=O)Nc1cccc(C(F)F)n1 (stereo partly shown) [Example 34, N-[6-(difluoromethyl)-2-pyridyl]-2-[4-[[[1-[[3-[(2,6-dioxo-3-piperidyl)amino]phenyl]methyl]-4-piperidyl]-methyl-amino]methyl]cyclohexyl]-7-isopropoxy-imidazo[1,2-a]pyridine-6-carboxamide] |
| 10 to 100 | CC(C)Oc1cc2nc([C@H]3CC[C@H](CN4CCC(c5cc6c(cc5F)c(N5CCC(=O)NC5=O)nn6C)C(F)(F)C4)CC3)cn2cc1C(=O)Nc1cnn2cccnc12 (stereo partly shown) [Example 170, 2-((1r,4r)-4-((4-(3-(2,4-dioxotetrahydropyrimidin-1(2H)-yl)-5-fluoro-1-methyl-1H-indazol-6-yl)-3,3-difluoropiperidin-1-yl)methyl)cyclohexyl)-7-isopropoxy-N-(pyrazolo[1,5-a]pyrimidin-3-yl)imidazo[1,2-a]pyridine-6-carboxamide] |
| 100 to 500 | CC(C)Oc1cc2nc(C3CCC(CN4CCC(c5ccc(NC6CCC(=O)NC6=O)cc5F)CC4)CC3)cn2cc1C(=O)Nc1cccc(C(F)(F)F)n1 (stereo not shown) [Example 1, 2-[4-[[4-[4-[(2,6-dioxo-3-piperidyl)amino]-2-fluoro-phenyl]-1-piperidyl]methyl]cyclohexyl]-7-isopropoxy-N-[6-(trifluoromethyl)-2-pyridyl]imidazo[1,2-a]pyridine-6-carboxamide] |
| 100 to 500 | CC(C)Oc1cc2nc([C@H]3CC[C@H](CN(C)C4CCN(c5ccc(NC6CCC(=O)NC6=O)cc5)CC4)CC3)cn2cc1C(=O)Nc1cccc(C(F)(F)F)n1 (stereo partly shown) [Example 7, 2-[4-[[[1-[4-[(2,6-dioxo-3-piperidyl)amino]phenyl]-4-piperidyl]-methyl-amino]methyl]cyclohexyl]-7-isopropoxy-N-[6-(trifluoromethyl)-2-pyridyl]imidazo[1,2-a]pyridine-6-carboxamide] |
| 10 to 100 | CC(C)Oc1cc2nc([C@H]3CC[C@H](CN(C)C4CCN(c5cccc(NC6CCC(=O)NC6=O)c5)CC4)CC3)cn2cc1C(=O)Nc1cccc(C(F)F)n1 (stereo partly shown) [Example 24, N-[6-(difluoromethyl)-2-pyridyl]-2-[4-[[[1-[3-[(2,6-dioxo-3-piperidyl)amino]phenyl]-4-piperidyl]-methyl-amino]methyl]cyclohexyl]-7-isopropoxy-imidazo[1,2-a]pyridine-6-carboxamide] |
| 100 to 500 | CC(C)Oc1cc2nn(C3CCN(C(=O)CN4CCC(c5ccc(NC6CCC(=O)NC6=O)cc5)CC4)CC3)cc2cc1C(=O)Nc1cccc(C(F)(F)F)n1 (stereo not shown) [Example 60, 2-(1-(2-(4-(4-((2,6-dioxopiperidin-3-yl)amino)phenyl)piperidin-1-yl)acetyl)piperidin-4-yl)-6-isopropoxy-N-(6-(trifluoromethyl)pyridin-2-yl)-2H-indazole-5-carboxamide] |
| 10 to 100 | CC(C)Oc1cc2nc([C@H]3CC[C@H](CN4CCC(c5ccc(CN6CCC(=O)NC6=O)cc5)CC4)CC3)cn2cc1C(=O)Nc1cccc(C(F)F)n1 [Example 37, N-[6-(difluoromethyl)-2-pyridyl]-2-[4-[[4-[4-[(2,4-dioxohexahydropyrimidin-1-yl)methyl]phenyl]-1-piperidyl]methyl]cyclohexyl]-7-isopropoxy-imidazo[1,2-a]pyridine-6-carboxamide] |
| 100 to 500 | CC(C)Oc1cc2nc([C@H]3CC[C@H](CN4CCC(c5ccc(C6(F)CCC(=O)NC6=O)cc5)CC4)CC3)cn2cc1C(=O)Nc1cccc(C(F)F)n1 (stereo partly shown) [Example 45, N-[6-(difluoromethyl)-2-pyridyl]-2-[4-[[4-[4-(3-fluoro-2,6-dioxo-3-piperidyl)phenyl]-1-piperidyl]methyl]cyclohexyl]-7-isopropoxy-imidazo[1,2-a]pyridine-6-carboxamide] |
| 100 to 500 | CC(C)Oc1cc2nc([C@H]3CC[C@H](CN4CCC(c5ccc(NC6CCC(=O)NC6=O)cc5)C(F)(F)C4)CC3)cn2cc1C(=O)Nc1cccc(C(F)F)n1 (stereo partly shown) [Example 36, N-[6-(difluoromethyl)-2-pyridyl]-2-[4-[[4-[4-[(2,6-dioxo-3-piperidyl)amino]phenyl]-3,3-difluoro-1-piperidyl]methyl]cyclohexyl]-7-isopropoxy-imidazo[1,2-a]pyridine-6-carboxamide] |
| 10 to 100 | CC(C)Oc1cc2nn(C3CCN(C(=O)CC4(O)CCN(c5ccc(NC6CCC(=O)NC6=O)cc5F)CC4)CC3)cc2cc1C(=O)Nc1cccc(C(F)(F)F)n1 (stereo not shown) [Example 59, 2-[1-[2-[1-[4-[(2,6-dioxo-3-piperidyl)amino]-2-fluoro-phenyl]-4-hydroxy-4-piperidyl]acetyl]-4-piperidyl]-6-isopropoxy-N-[6-(trifluoromethyl)-2-pyridyl]indazole-5-carboxamide] |
| 100 to 500 | Cc1cnc2c(NC(=O)c3cn4cc([C@H]5CC[C@H](CN6CCC(c7cc(F)c(C8CCC(=O)NC8=O)cc7F)C(F)(F)C6)CC5)nc4cc3OC(C)C)cnn2c1 (stereo partly shown) [Example 54, 2-[4-[[4-[4-(2,6-dioxo-3-piperidyl)-2,5-difluoro-phenyl]-3,3-difluoro-1-piperidyl]methyl]cyclohexyl]-7-isopropoxy-N-(6-methylpyrazolo[1,5-a]pyrimidin-3-yl)imidazo[1,2-a]pyridine-6-carboxamide] |
| 100 to 500 | CC(C)Oc1cc2nc(C3CCN(CC(=O)N4CCC(c5ccc(NC6CCC(=O)NC6=O)cc5)CC4)CC3)cn2cc1C(=O)Nc1ccc(F)cc1F (stereo not shown) [Example 94, N-(2,4-difluorophenyl)-2-[1-[2-[4-[4-[(2,6-dioxo-3-piperidyl)amino]phenyl]-1-piperidyl]-2-oxo-ethyl]-4-piperidyl]-7-isopropoxy-imidazo[1,2-a]pyridine-6-carboxamide] |
| 10 to 100 | CC(C)Oc1cc2nc(C3CCN(CC(=O)N4CCC(c5cc(F)c(C6CCC(=O)NC6=O)cc5F)CC4)CC3)cn2cc1C(=O)Nc1cnn2cccnc12 (stereo not shown) [Example 100, 2-[1-[2-[4-[4-(2,6-dioxo-3-piperidyl)-2,5-difluoro-phenyl]-1-piperidyl]-2-oxo-ethyl]-4-piperidyl]-7-isopropoxy-N-pyrazolo[1,5-a]pyrimidin-3-yl-imidazo[1,2-a]pyridine-6-carboxamide] |
| 10 to 100 | CC(C)Oc1cc2nc([C@H]3CC[C@H](CN4CCC(c5ccc(N6CCC(=O)NC6=O)cc5)CC4)CC3)cn2cc1C(=O)Nc1cccc(C(F)F)n1 [Example 39, N-[6-(difluoromethyl)-2-pyridyl]-2-[4-[[4-[4-(2,4-dioxohexahydropyrimidin-1-yl)phenyl]-1-piperidyl]methyl]cyclohexyl]-7-isopropoxy-imidazo[1,2-a]pyridine-6-carboxamide] |
